Test results taken from patent US20150366890A1, “COMPOSITIONS AND METHODS FOR TREATING FUNGAL INFECTIONS” (TRUSTEES OF BOSTON UNIVERSITY, priority 2013, published 2015).
Where two headings read alike, the source gives them in different places.

Assays:
Format in all cases: cell-based
[1] = test system: S. cerevisiae single-deletion yeast strains; experiment: High-throughput 96-well screen of AF sensitivity of single-gene knockouts (CFU at start and after 8 hours); details: S. cerevisiae PAB156, COX6 deletion
Description: To identify genes critical to AF action, the AF sensitivity of single-gene knockouts identified through the common transcriptional analysis were identified. In the first pass-through, 56 testable genes were identified. This set was later expanded to include targets identified through phenotypic analysis and metabolomic profiling, for a total of 84 target genes (Table 2). The initial 56 targets were tested using a rapid high-throughput 96-well assay with AMB and MCZ to identify single-gene knockouts with elevated resistance to AFs (Table 2). Knockouts that were more resistant to at least one of the AFs were tested individually using the 24-well colony forming (CF) assay. Target genes selected after the initial 56 strains were assayed individually using the 24-well CF assay.
The first 56 S. cerevisiae strains were acquired from the deletion library and stored in 96-well plates in replicates of three. To start the assay, the plates were defrosted and 10 μl of stored cells were inoculated into 100 μl of fresh synthetic dextrose complete (SDC) media for 16 hours. These overnight cultures were diluted into a fresh 96-well plate with 100 μl of SDC to achieve an OD600 of approximately 0.2. Colony forming units (CFU) in each well were measured at the start of the assay and after 8 hours of incubation. The AF susceptibility of each strain was compared to that of wildtype. Strains with significant susceptibility differences from wildtype were assayed in 0.5 ml of SDC media using the 24-well plate CF assay described above.

[2] = test system: S. cerevisiae wildtype and deletion strains
S. cerevisiae = experiment: Mitochondrial activity by MitoTracker Red fluorescence; details: drug added to glucose-incubated (SC, 2% glucose) S. cerevisiae
Description: It was next sought to assess the mitochondrial activity of AF-treated fungal cells. Yhe MitoTracker Red dye, which enters the mitochondrial matrix by utilizing the proton motive force and thus labels metabolically active mitochondria in viable cells was used (Arita et al., 2006; Tomas et al., 2011). Exponential phase S. cerevisiae were incubated in glucose-free synthetic complete (SC) media for 30 min and then switched to SC containing 2% glucose or non-fermentable acetate for 1.5 hours.
Overnight yeast cultures were diluted into the indicated media and grown to an OD600 of 0.2, at which point the AFs were added. Colony forming units (CFU) were measured by plating six serial dilutions onto YPD agar plates. Cells treated with MCZ were washed before serial dilution to stop growth inhibition associated with high concentrations of MCZ. CFU were counted after three days of incubation on agar plates. When indicated, thiourea (Fluka) was added 30 min prior to the addition of AFs. HPF (10 μM) (Invitrogen) and Mito Tracker (1 μM) (Invitrogen) dyes were added to PBS-washed cells at the indicated time points and incubated for 30 min prior to flow cytometry measurements, which were taken on the FACSCalibur (Becton-Dickinson). All experiments described in this section were conducted in 0.5 ml of SDC in 24-well plates incubated at 900 rpm and 37° C. for C. albicans and 30° C. and 300 rpm for S. cerevisiae. TUNEL assays were conducted as previously described (Ribeiro et al., 2006) and are described in detail in the TUNEL section of the Experimental Procedures.

Compound: C[C@@H]1[C@H](O)[C@@H](C)/C=C/C=C/C=C/C=C/C=C/C=C/C=C/[C@H](O[C@@H]2O[C@H](C)[C@@H](O)[C@H](N)[C@@H]2O)C[C@@H]2O[C@](O)(C[C@@H](O)C[C@@H](O)[C@H](O)CC[C@@H](O)C[C@@H](O)CC(=O)O[C@H]1C)C[C@H](O)[C@H]2C(=O)O [AMB, amphotericin B]
- 96 Well Screen, AF susceptibility vs wildtype [1]: Sensitive (″Resistant″ or ″Sensitive″ indicate at least a 5-fold CFU difference from wildtype at the final time point)
- additive resistance on deleting the remaining citrate synthases in the cit3 background ([2]; S. cerevisiae CIT1/CIT2 deletions in cit3 background): additive resistance
- CFU (24-well colony forming assay), AF susceptibility vs wildtype ([2]; S. cerevisiae PAB101, WT): Normal
- CFU (24-well colony forming assay), AF susceptibility vs wildtype ([2]; S. cerevisiae PAB102, HSP104 deletion): Normal
- CFU (24-well colony forming assay), AF susceptibility vs wildtype ([2]; S. cerevisiae PAB103, SDH2 deletion): Resistant (″Resistant″ or ″Sensitive″ indicate at least a 5-fold CFU difference from wildtype at the final time point)
- CFU (24-well colony forming assay), AF susceptibility vs wildtype ([2]; S. cerevisiae PAB104, FRE8 deletion): Resistant (″Resistant″ or ″Sensitive″ indicate at least a 5-fold CFU difference from wildtype at the final time point)
- CFU (24-well colony forming assay), AF susceptibility vs wildtype ([2]; S. cerevisiae PAB105, CHA4 deletion): Resistant (″Resistant″ or ″Sensitive″ indicate at least a 5-fold CFU difference from wildtype at the final time point)
- CFU (24-well colony forming assay), AF susceptibility vs wildtype ([2]; S. cerevisiae PAB106, FMS1 deletion): Resistant (″Resistant″ or ″Sensitive″ indicate at least a 5-fold CFU difference from wildtype at the final time point)
- CFU (24-well colony forming assay), AF susceptibility vs wildtype ([2]; S. cerevisiae PAB107, NDE1 deletion): Resistant (″Resistant″ or ″Sensitive″ indicate at least a 5-fold CFU difference from wildtype at the final time point)
- CFU (24-well colony forming assay), AF susceptibility vs wildtype ([2]; S. cerevisiae PAB108, ALD3 deletion): Normal
- CFU (24-well colony forming assay), AF susceptibility vs wildtype ([2]; S. cerevisiae PAB112, MNE1 deletion): Resistant (″Resistant″ or ″Sensitive″ indicate at least a 5-fold CFU difference from wildtype at the final time point)
- CFU (24-well colony forming assay), AF susceptibility vs wildtype ([2]; S. cerevisiae PAB113, FUM1 deletion): Resistant (″Resistant″ or ″Sensitive″ indicate at least a 5-fold CFU difference from wildtype at the final time point)
- CFU (24-well colony forming assay), AF susceptibility vs wildtype ([2]; S. cerevisiae PAB114, TPK2 deletion): Resistant (″Resistant″ or ″Sensitive″ indicate at least a 5-fold CFU difference from wildtype at the final time point)
- CFU (24-well colony forming assay), AF susceptibility vs wildtype ([2]; S. cerevisiae PAB116, ISU1 deletion): Normal
- CFU (24-well colony forming assay), AF susceptibility vs wildtype ([2]; S. cerevisiae PAB117, CYC7 deletion): Normal
- CFU (24-well colony forming assay), AF susceptibility vs wildtype ([2]; S. cerevisiae PAB119, CIT2 deletion): Resistant (″Resistant″ or ″Sensitive″ indicate at least a 5-fold CFU difference from wildtype at the final time point)
- CFU (24-well colony forming assay), AF susceptibility vs wildtype ([2]; S. cerevisiae PAB120, HSP30 deletion): Normal
- CFU (24-well colony forming assay), AF susceptibility vs wildtype ([2]; S. cerevisiae PAB121, SDH1 deletion): Resistant (″Resistant″ or ″Sensitive″ indicate at least a 5-fold CFU difference from wildtype at the final time point)
- CFU (24-well colony forming assay), AF susceptibility vs wildtype ([2]; S. cerevisiae PAB122, TPK3 deletion): Resistant (″Resistant″ or ″Sensitive″ indicate at least a 5-fold CFU difference from wildtype at the final time point)
- CFU (24-well colony forming assay), AF susceptibility vs wildtype ([2]; S. cerevisiae PAB123, ISU2 deletion): Normal
- CFU (24-well colony forming assay), AF susceptibility vs wildtype ([2]; S. cerevisiae PAB124, TPK1 deletion): Resistant (″Resistant″ or ″Sensitive″ indicate at least a 5-fold CFU difference from wildtype at the final time point)
- CFU (24-well colony forming assay), AF susceptibility vs wildtype ([2]; S. cerevisiae PAB132, CIT3 deletion): Resistant (″Resistant″ or ″Sensitive″ indicate at least a 5-fold CFU difference from wildtype at the final time point)
- CFU (24-well colony forming assay), AF susceptibility vs wildtype ([2]; S. cerevisiae PAB135, NDI1 deletion): Resistant (″Resistant″ or ″Sensitive″ indicate at least a 5-fold CFU difference from wildtype at the final time point)
- CFU (24-well colony forming assay), AF susceptibility vs wildtype ([2]; S. cerevisiae PAB145, CIT1 deletion): Resistant (″Resistant″ or ″Sensitive″ indicate at least a 5-fold CFU difference from wildtype at the final time point)
- CFU (24-well colony forming assay), AF susceptibility vs wildtype ([2]; S. cerevisiae PAB149, YAK1 deletion): Sensitive (″Resistant″ or ″Sensitive″ indicate at least a 5-fold CFU difference from wildtype at the final time point)
- CFU (24-well colony forming assay), AF susceptibility vs wildtype ([2]; S. cerevisiae PAB153, SHO1 deletion): Sensitive (″Resistant″ or ″Sensitive″ indicate at least a 5-fold CFU difference from wildtype at the final time point)
- CFU (24-well colony forming assay), AF susceptibility vs wildtype ([2]; S. cerevisiae PAB155, FBP1 deletion): Sensitive (″Resistant″ or ″Sensitive″ indicate at least a 5-fold CFU difference from wildtype at the final time point)
- CFU (24-well colony forming assay), AF susceptibility vs wildtype ([2]; S. cerevisiae PAB158, MSN4 deletion): Normal
- CFU (24-well colony forming assay), AF susceptibility vs wildtype ([2]; S. cerevisiae PAB161, MSN2 deletion): Normal
- CFU (24-well colony forming assay), AF susceptibility vs wildtype ([2]; S. cerevisiae PAB162, YAP1 deletion): Normal
- CFU (24-well colony forming assay), AF susceptibility vs wildtype ([2]; S. cerevisiae PAB163, CIN5 deletion): Normal
- CFU (24-well colony forming assay), AF susceptibility vs wildtype ([2]; S. cerevisiae PAB164, Pde2 deletion): Normal
- CFU (24-well colony forming assay), AF susceptibility vs wildtype ([2]; S. cerevisiae PAB165, USV1 deletion): Normal
- CFU (24-well colony forming assay), AF susceptibility vs wildtype ([2]; S. cerevisiae PAB166, CAD1 deletion): Normal
- CFU (24-well colony forming assay), AF susceptibility vs wildtype ([2]; S. cerevisiae PAB167, RIM101 deletion): Normal
- CFU (24-well colony forming assay), AF susceptibility vs wildtype ([2]; S. cerevisiae PAB168, RAS1 deletion): Resistant (″Resistant″ or ″Sensitive″ indicate at least a 5-fold CFU difference from wildtype at the final time point)
- CFU (24-well colony forming assay), AF susceptibility vs wildtype ([2]; S. cerevisiae PAB169, HYR1 deletion): Resistant (″Resistant″ or ″Sensitive″ indicate at least a 5-fold CFU difference from wildtype at the final time point)
- CFU (24-well colony forming assay), AF susceptibility vs wildtype ([2]; S. cerevisiae PAB170, CRZ1 deletion): Normal
- CFU (24-well colony forming assay), AF susceptibility vs wildtype ([2]; S. cerevisiae PAB171, RAS2 deletion): Resistant (″Resistant″ or ″Sensitive″ indicate at least a 5-fold CFU difference from wildtype at the final time point)
- CFU (24-well colony forming assay), AF susceptibility vs wildtype ([2]; S. cerevisiae PAB172, XBP1 deletion): Normal
- CFU (24-well colony forming assay), AF susceptibility vs wildtype ([2]; S. cerevisiae PAB173, SRV2 deletion): Normal
- CFU (24-well colony forming assay), AF susceptibility vs wildtype ([2]; S. cerevisiae PAB174, TPS3 deletion): Resistant (″Resistant″ or ″Sensitive″ indicate at least a 5-fold CFU difference from wildtype at the final time point)
- CFU (24-well colony forming assay), AF susceptibility vs wildtype ([2]; S. cerevisiae PAB175, TPS2 deletion): Sensitive (″Resistant″ or ″Sensitive″ indicate at least a 5-fold CFU difference from wildtype at the final time point)
- CFU (24-well colony forming assay), AF susceptibility vs wildtype ([2]; S. cerevisiae PAB177, SOD2 deletion): Normal
- CFU (24-well colony forming assay), AF susceptibility vs wildtype ([2]; S. cerevisiae PAB178, CTA1 deletion): Normal
- CFU (24-well colony forming assay), AF susceptibility vs wildtype ([2]; S. cerevisiae PAB179, CTT1 deletion): Normal
- CFU (24-well colony forming assay), AF susceptibility vs wildtype ([2]; S. cerevisiae PAB180, MET1 deletion): Normal
- CFU (24-well colony forming assay), AF susceptibility vs wildtype ([2]; S. cerevisiae PAB181, TVP18 deletion): Normal
- CFU (24-well colony forming assay), AF susceptibility vs wildtype ([2]; S. cerevisiae PAB182, PML39 deletion): Normal
- CFU (24-well colony forming assay), AF susceptibility vs wildtype ([2]; S. cerevisiae PAB183, VPS9 deletion): Normal
- higher drug concentration required by citrate synthase triple mutant to achieve the sensitivity of the single mutants ([2]; S. cerevisiae cit1 cit2 cit3 triple mutant, 3 hours of drug exposure): more than 8 fold
- reduction of killing at 3 hours by thiourea ([2]; S. cerevisiae, 50 mM thiourea for 30 minutes prior to the addition of AF drugs): ~15 fold
- increase of MitoTracker fluorescence (S. cerevisiae): 60 fold
